Patent US12076373B2, “Formulations for oral administration of active agents” (Entera Bio Ltd., priority 2015, dated 2024)

How the values were obtained:
[1] = Open label comparative pharmacokinetic study of oral teriparatide tablet in healthy volunteers; format: in vivo, human; settings: oral tablet 0.75 mg teriparatide + SNAC + SBTI, with 150 ml of 3 mg/ml sodium bicarbonate solution vs 150 ml water; ten healthy volunteers, fasted; plasma
Description: An open label comparative pharmacokinetic study was performed on ten healthy volunteers. On different visits, each volunteer received the same oral tablet containing 0.75 mg of teriparatide, a recombinant form of parathyroid hormone (1-34) (PTH(1-34)). In the first visit, the tablet was administered with 150 ml water, whereas in the second visit the tablet was administered with 150 ml of 3 mg/ml sodium bicarbonate aqueous solution.
The formulation was composed of teriparatide (0.75 mg), SNAC (sodium 8-N-(2-hydroxybenzoyl)aminocaprylate), soybean trypsin inhibitor (SBTI) and a small amount of magnesium stearate.
Tablets were administered in the morning after an 8-hour overnight fast. At each visit a standard meal was provided 3 hours after drug administration. […] There was a two week period between the two visits.
To determine PTH(1-34) concentrations, blood samples (4 ml each) were drawn via an indwelling catheter from the forearm vein at predetermined time points during each visit. The cannula was flushed with 1.5 ml normal saline after each sampling. In addition, to avoid sample dilution, 1 ml of blood was drawn and discarded before the next sample. […] PTH(1-34) levels were measured using an IDS-iSYS automated assay for the measurement of intact PTH(1-34) in human plasma or serum. […] Relative absorption was determined based on the AUC (area under curve) parameter.

[2] = Dissolution test: release of SNAC from tablet formulations in simulated gastric buffer; format: physicochemical; settings: tablet with 100 mg sodium bicarbonate vs tablet without, trypsin inhibitor, teriparatide, 100 ml simulated gastric buffer without pepsin, pH 2.0, 37° C., USP 23 Apparatus 2, 50 rpm
Description: The tablets were in a form of a homogeneous mixture.
Each tablet formulation was subjected to a dissolution test in 100 ml of simulated gastric buffer (without pepsin), pH 2.0, at 37° C., according to USP 23 Apparatus 2 (paddle) with 50 rotations per minute. The amount of released SNAC in each sample was determined chromatographically, using an HPLC apparatus with Cosmosil™ 5 C18-MS-II (4.6 ID×250 mm) column. Mobile phase consisted of 50% acetonitrile and 50% phosphoric acid solution (0.1%). Flow rate was 1 ml/minute and injection volume was 25 μl. Amount of released SNAC was calculated as a percentage of the amount of SNAC in the formulation.

CC[C@H](C)[C@H](NC(=O)[C@H](CCC(=O)O)NC(=O)[C@H](CO)NC(=O)[C@@H](NC(=O)[C@@H](N)CO)C(C)C)C(=O)N[C@@H](CCC(N)=O)C(=O)N[C@@H](CC(C)C)C(=O)N[C@@H](CCSC)C(=O)N[C@@H](Cc1cnc[nH]1)C(=O)N[C@@H](CC(N)=O)C(=O)N[C@@H](CC(C)C)C(=O)NCC(=O)N[C@@H](CCCCN)C(=O)N[C@@H](Cc1cnc[nH]1)C(=O)N[C@@H](CC(C)C)C(=O)N[C@@H](CC(N)=O)C(=O)N[C@@H](CO)C(=O)N[C@@H](CCSC)C(=O)N[C@@H](CCC(=O)O)C(=O)N[C@@H](CCCN=C(N)N)C(=O)N[C@H](C(=O)N[C@@H](CCC(=O)O)C(=O)N[C@@H](Cc1c[nH]c2ccccc12)C(=O)N[C@@H](CC(C)C)C(=O)N[C@@H](CCCN=C(N)N)C(=O)N[C@@H](CCCCN)C(=O)N[C@@H](CCCCN)C(=O)N[C@@H](CC(C)C)C(=O)N[C@@H](CCC(N)=O)C(=O)N[C@@H](CC(=O)O)C(=O)N[C@H](C(=O)N[C@@H](Cc1cnc[nH]1)C(=O)N[C@@H](CC(N)=O)C(=O)N[C@@H](Cc1ccccc1)C(=O)O)C(C)C)C(C)C [PTH(1-34), teriparatide]
increase in absorption of PTH(1-34) (relative absorption based on AUC) [1]: about 35%

O=C(O)CCCCCCCNC(=O)c1ccccc1O [SNAC, sodium 8-N-(2-hydroxybenzoyl)aminocaprylate]
dissolution of SNAC in tablets (released SNAC as a percentage of the amount of SNAC in the formulation) [2]: considerably enhanced
